Laboratory results from patent publication US6737383B1, “Herbicidal oxadiazolidines” (priority 1999, dated 2004).

Assays:
[1] = tested on: sugar beet; experiment: Test B pre/postemergence sugar beet; format: in vivo, Beta vulgaris; settings: for Sugarbeets plant response rating: scale of 0 to 10 where 0 is no effect and 10 is complete control
Outline: (§1)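 Herbicidal effect was estimated by eye on a ten-point control scale after plants spent twelve to sixteen days in a greenhouse following soil or foliar treatment. Foliar sprays targeted plants at one to four leaves; all doses were formulated in a non-phytotoxic solvent with surfactant.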

[2] = tested on: wheat; experiment: Test B pre/postemergence wheat; format: in vivo, Triticum aestivum; settings: for Wheat plant response rating: scale of 0 to 10 where 0 is no effect and 10 is complete control
Outline: as §1

[3] = tested on: blackgrass; experiment: Test B pre/postemergence blackgrass; format: in vivo, Alopecurus myosuroides; settings: for Blackgrass plant response rating: scale of 0 to 10 where 0 is no effect and 10 is complete control
Outline: as §1

[4] = tested on: purple nutsedge; experiment: Test B pre/postemergence purple nutsedge; format: in vivo, Cyperus rotundus; settings: for Nutsedge plant response rating: scale of 0 to 10 where 0 is no effect and 10 is complete control
Outline: as §1

[5] = tested on: pigweed; experiment: Test B pre/postemergence pigweed; format: in vivo, Amaranthus retroflexus; settings: for Redroot pigweed plant response rating: scale of 0 to 10 where 0 is no effect and 10 is complete control
Outline: as §1

[6] = tested on: bedstraw; experiment: Test B pre/postemergence bedstraw; format: in vivo, Galium aparine; settings: Rate 500 g/ha, scale of 0 to 10 where 0 is no effect and 10 is complete control
Outline: as §1

[7] = tested on: rice; experiment: Test B flood test rice; format: in vivo, Oryza sativa
Outline: (§2)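 Read-out is a visual response score from 0 (no effect) to 10 (complete control), assigned by comparison with untreated controls. Treatment was applied at the 2-leaf stage, and plants stayed in the greenhouse for twelve to sixteen days before scoring.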

[8] = tested on: crabgrass; experiment: Test B pre/postemergence crabgrass; format: in vivo, Digitaria sanguinalis; settings: for Crabgrass plant response rating: scale of 0 to 10 where 0 is no effect and 10 is complete control
Outline: as §1

[9] = tested on: morningglory; experiment: Test B pre/postemergence morningglory; format: in vivo, Ipomoea hederacea; settings: for Morningglory plant response rating: scale of 0 to 10 where 0 is no effect and 10 is complete control
Outline: as §1

[10] = tested on: giant foxtail; experiment: Test B pre/postemergence giant foxtail; format: in vivo, Setaria faberii; settings: for Giant foxtail plant response rating: scale of 0 to 10 where 0 is no effect and 10 is complete control
Outline: as §1

[11] = tested on: bamyardgrass; experiment: Test B flood test barnyardgrass; format: in vivo, Echinochloa crus-galli
Outline: as §2

[12] = tested on: rape; experiment: Test B pre/postemergence rape; format: in vivo, Brassica napus; settings: for Rape plant response rating: scale of 0 to 10 where 0 is no effect and 10 is complete control
Outline: as §1

[13] = tested on: surinam grass; experiment: Test B pre/postemergence surinam grass; format: in vivo, Brachiaria decumbens; settings: for B. signalgrass plant response rating: scale of 0 to 10 where 0 is no effect and 10 is complete control
Outline: as §1

[14] = tested on: smallflower flatsedge; experiment: Test B flood test smallflower flatsedge; format: in vivo, Cyperus difformis
Outline: as §2

[15] = tested on: corn; experiment: Test B pre/postemergence corn; format: in vivo, Zea mays; settings: for Corn plant response rating: scale of 0 to 10 where 0 is no effect and 10 is complete control
Outline: as §1

[16] = tested on: wild oat; experiment: Test B pre/postemergence wild oat; format: in vivo, Avena fatua; settings: for Wild oats plant response rating: scale of 0 to 10 where 0 is no effect and 10 is complete control
Outline: as §1

[17] = Postemergence, Rate 125 g/ha, scale 0 to 10, 0 is no effect, 10 is complete control
[18] = Postemergence, Rate 250 g/ha, scale 0 to 10, 0 is no effect, 10 is complete control
[19] = Preemergence, Rate 62 g/ha, scale 0 to 10 (0 no effect, 10 complete control)
[20] = Rate 62 g/ha, flood test species, Pre-emergence, visual evaluation after twelve to sixteen days
[21] = Rate 125 g/ha, under heading Pre-emergence, flood test species, visual evaluation after twelve to sixteen days
[22] = Rate 250 g/ha, Pre-emergence, flood-test species, scale 0 to 10, 0 is no effect, 10 is complete control
[23] = Rate 500 g/ha, Pre-emergence, flood test species, scale 0 to 10 (0 no effect, 10 complete control)

CC(C)N(C(=O)n1oc(=O)n(CCC#N)c1=O)c1ccc(F)cc1 [Compound 388]
1: Blackgrass plant response rating (0 to 10 scale) ([3]; Preemergence, Rate 125 g/ha) | Morningglory plant response rating ([9]; Rate 62 g/ha, Postemergence) | B. signalgrass plant response rating ([13]; Rate 62 g/ha, Postemergence)
8: Wheat plant response rating ([2]; Postemergence, Rate 500 g/ha) | Wheat plant response rating ([2]; Preemergence, Rate 500 g/ha) | Plant response rating, Blackgrass [3, 17] | Plant response rating, Crabgrass [8, 18] | Crabgrass plant response rating (0 to 10 scale) ([8]; Preemergence, Rate 125 g/ha) | Plant response rating, Giant foxtail [10, 17] | Plant response rating, Giant foxtail [10, 18] | Plant response rating, Giant foxtail [10, 19] | Giant foxtail plant response rating (0 to 10 scale) ([10]; Preemergence, Rate 125 g/ha) | Rape plant response rating ([12]; Preemergence, Rate 500 g/ha) | Plant response rating, B. signalgrass [13, 18] | B. signalgrass plant response rating ([13]; Postemergence, Rate 500 g/ha)
4: Sugarbeets plant response rating ([1]; Postemergence, Rate 500 g/ha) | Wheat plant response rating ([2]; Preemergence, Rate 250 g/ha) | Plant response rating, Crabgrass [8, 17] | Crabgrass plant response rating ([8]; Rate 62 g/ha, Postemergence) | Plant response rating, Morningglory [9, 18]
10: Blackgrass plant response rating ([3]; Postemergence, Rate 500 g/ha) | Redroot pigweed plant response rating ([5]; Preemergence, Rate 500 g/ha) | Crabgrass plant response rating ([8]; Preemergence, Rate 250 g/ha) | Crabgrass plant response rating ([8]; Preemergence, Rate 500 g/ha) | Giant foxtail plant response rating ([10]; Preemergence, Rate 250 g/ha) | Giant foxtail plant response rating ([10]; Preemergence, Rate 500 g/ha) | Wild oats plant response rating ([16]; Preemergence, Rate 250 g/ha) | Wild oats plant response rating ([16]; Preemergence, Rate 500 g/ha)
5: Blackgrass plant response rating ([3]; Preemergence, Rate 250 g/ha) | Plant response rating, Nutsedge [4, 18] | Morningglory plant response rating ([9]; Postemergence, Rate 500 g/ha)
9: Crabgrass plant response rating ([8]; Postemergence, Rate 500 g/ha) | Giant foxtail plant response rating ([10]; Postemergence, Rate 500 g/ha) | Corn plant response rating ([15]; Preemergence, Rate 500 g/ha)
0: Plant response rating, Sugarbeets [1, 17] | Plant response rating, Sugarbeets [1, 18] | Plant response rating, Sugarbeets [1, 19] | Sugarbeets plant response rating ([1]; Rate 62 g/ha, Postemergence) | Plant response rating, Wheat [2, 17] | Plant response rating, Wheat [2, 19] | Wheat plant response rating ([2]; Rate 62 g/ha, Postemergence) | Plant response rating, Blackgrass [3, 19] | Plant response rating, Nutsedge [4, 19] | Nutsedge plant response rating (0 to 10 scale) ([4]; Preemergence, Rate 125 g/ha) | Nutsedge plant response rating ([4]; Preemergence, Rate 250 g/ha) | Plant response rating, Redroot pigweed [5, 17] | Plant response rating, Redroot pigweed [5, 18] | Plant response rating, Redroot pigweed [5, 19] | Redroot pigweed plant response rating (0 to 10 scale) ([5]; Preemergence, Rate 125 g/ha) | Redroot pigweed plant response rating ([5]; Rate 62 g/ha, Postemergence) | Plant response rating, Rice (0 to 10 scale, 0 is no effect, 10 is complete control) [7, 20] | Rice plant response rating (0 to 10 scale, 0 is no effect, 10 is complete control) [7, 21] | Rice plant response rating [7, 22] | Rice plant response rating [7, 23] | Plant response rating, Morningglory [9, 19] | Morningglory plant response rating (0 to 10 scale) ([9]; Preemergence, Rate 125 g/ha) | Morningglory plant response rating ([9]; Preemergence, Rate 250 g/ha) | Morningglory plant response rating ([9]; Preemergence, Rate 500 g/ha) | Plant response rating, Barnyardgrass (0 to 10 scale, 0 is no effect, 10 is complete control) [11, 20] | Barnyardgrass plant response rating (0 to 10 scale, 0 is no effect, 10 is complete control) [11, 21] | Barnyardgrass plant response rating [11, 22] | Barnyardgrass plant response rating [11, 23] | Plant response rating, Rape [12, 17] | Rape plant response rating ([12]; Postemergence, Rate 500 g/ha) | Plant response rating, Rape [12, 19] | Rape plant response rating (0 to 10 scale) ([12]; Preemergence, Rate 125 g/ha) | Rape plant response rating ([12]; Rate 62 g/ha, Postemergence) | Plant response rating, B. signalgrass [13, 19] | Plant response rating, S. Flatsedge (0 to 10 scale, 0 is no effect, 10 is complete control) [14, 20] | S. Flatsedge plant response rating (0 to 10 scale, 0 is no effect, 10 is complete control) [14, 21] | S. Flatsedge plant response rating [14, 22] | S. Flatsedge plant response rating [14, 23] | Plant response rating, Corn [15, 17] | Plant response rating, Corn [15, 18] | Corn plant response rating ([15]; Postemergence, Rate 500 g/ha) | Plant response rating, Corn [15, 19] | Corn plant response rating (0 to 10 scale) ([15]; Preemergence, Rate 125 g/ha) | Corn plant response rating ([15]; Rate 62 g/ha, Postemergence) | Plant response rating, Wild oats [16, 17] | Plant response rating, Wild oats [16, 18] | Wild oats plant response rating ([16]; Rate 62 g/ha, Postemergence)
6: Sugarbeets plant response rating ([1]; Preemergence, Rate 500 g/ha) | Blackgrass plant response rating ([3]; Preemergence, Rate 500 g/ha) | Nutsedge plant response rating ([4]; Postemergence, Rate 500 g/ha) | Redroot pigweed plant response rating ([5]; Preemergence, Rate 250 g/ha) | Bedstraw plant response rating ([6]; Postemergence) | Plant response rating, Crabgrass [8, 19] | Plant response rating, B. signalgrass [13, 17] | B. signalgrass plant response rating ([13]; Preemergence, Rate 500 g/ha) | Wild oats plant response rating ([16]; Postemergence, Rate 500 g/ha) | Wild oats plant response rating (0 to 10 scale) ([16]; Preemergence, Rate 125 g/ha)
3: Sugarbeets plant response rating ([1]; Preemergence, Rate 250 g/ha) | Plant response rating, Wheat [2, 18] | Redroot pigweed plant response rating ([5]; Postemergence, Rate 500 g/ha) | Plant response rating, Morningglory [9, 17] | B. signalgrass plant response rating ([13]; Preemergence, Rate 250 g/ha) | Plant response rating, Wild oats [16, 19]
7: Bedstraw plant response rating ([6]; Preemergence) | Giant foxtail plant response rating ([10]; Rate 62 g/ha, Postemergence)
2: Sugarbeets plant response rating (0 to 10 scale) ([1]; Preemergence, Rate 125 g/ha) | Wheat plant response rating (0 to 10 scale) ([2]; Preemergence, Rate 125 g/ha) | Rape plant response rating ([12]; Preemergence, Rate 250 g/ha) | B. signalgrass plant response rating (0 to 10 scale, 0 is no effect, 10 is complete control) ([13]; Preemergence, Rate 125 g/ha)
